Measurements as given in patent US9604933B2, “Pyrazolochalcones as potential anticancer agents” (COUNCIL OF SCIENTIFIC AND INDUSTRIAL RESEARCH, priority 2013, dated 2017).

How the values were obtained:
ACHN = assay: NCI SRB cytotoxicity, renal ACHN; format: cell-based; settings: Homo sapiens, 48 h exposure
Experimental: (§1) The pyrazolochalcones (7e, 8e, 10e, 11e, 12e, 13e and 8f) have been tested against fifty nine human tumor cell lines derived from nine cancer types (leukemia, non-small cell lung cancer, colon cancer, CNS cancer, melanoma, ovarian cancer, renal cancer, prostate cancer and breast cancer) as per the NCI protocol. For each compound, dose response curves for individual cell lines have been measured at a minimum of five concentrations at 10 fold dilutions. A protocol of 48 h continuous drug exposure has been used, and a sulforhodamine B (SRB) protein assay has been used to estimate cell viability or growth. The concentration for 50% cell growth inhibition (GI50), 50% cell death (LC50, 50% growth) and total cell growth inhibition (TGI, 0% growth) values were tabulated (Table-1). DMSO was used as control to calculate the values of GI50, LC50 and TGI. The compounds 7e, 8e, 10e, 11e, 12e, 13e and 8f has been evaluated for their in vitro cytotoxicity in […] cell lines from nine human cancer types of leukemia (K-562, SR), non-small cell lung (Hop-62, NCI-H226, NCI-H522), colon (HCT-116, HCT-15, HCC-2998), CNS (SF-539), melanoma (SK-MEL-5, UACC-62, M14), ovarian (IGROV1), renal (A498), prostate (PC3) and breast (BT-549, MDA-MB-435, HS578T) origin. The results are expressed as percent of cell growth determined relative to that of untreated control cells (Table 2).

Melanoma = assay: NCI SRB cytotoxicity, melanoma panel average; format: cell-based, human; settings: average of cell lines
Experimental: as §1
(§2) Each cancer type represents the average of six to eight different cancer cell lines.

HCC-2998 = assay: NCI SRB cytotoxicity, colon HCC-2998; format: cell-based; settings: Homo sapiens, 48 h exposure
Experimental: as §1

U251 = assay: NCI SRB cytotoxicity, CNS U251; format: cell-based; settings: Homo sapiens, U-251, 48 h exposure
Experimental: as §1

SNB-19 = assay: NCI SRB cytotoxicity, CNS SNB-19; format: cell-based; settings: Homo sapiens, 48 h exposure
Experimental: as §1

SR = assay: NCI SRB cytotoxicity, leukemia SR; format: cell-based; settings: Homo sapiens, 48 h exposure
Experimental: as §1

SK-OV-3 = assay: NCI SRB cytotoxicity, ovarian SK-OV-3; format: cell-based; settings: Homo sapiens, 48 h exposure
Experimental: as §1

HOP92 = assay: NCI SRB cytotoxicity, non-small cell lung HOP92; format: cell-based; settings: Homo sapiens, HOP-92, 48 h exposure
Experimental: as §1

HL-60(TB) = assay: NCI SRB cytotoxicity, leukemia HL-60(TB); format: cell-based; settings: Homo sapiens, 48 h exposure
Experimental: as §1

Renal = assay: NCI SRB cytotoxicity, renal panel average; format: cell-based, human; settings: average of cell lines
Experimental: as §1, §2

MDA-MB-231/ATCC = assay: NCI SRB cytotoxicity, breast MDA-MB-231/ATCC; format: cell-based; settings: Homo sapiens, 48 h exposure
Experimental: as §1

SF-539 = assay: NCI SRB cytotoxicity, CNS SF-539; format: cell-based; settings: Homo sapiens, 48 h exposure
Experimental: as §1

COLO-205 = assay: NCI SRB cytotoxicity, colon COLO-205; format: cell-based; settings: Homo sapiens, 48 h exposure
Experimental: as §1

MOLT-4 = assay: NCI SRB cytotoxicity, leukemia MOLT-4; format: cell-based; settings: Homo sapiens, 48 h exposure
Experimental: as §1

SN12C = assay: NCI SRB cytotoxicity, renal SN12C; format: cell-based; settings: Homo sapiens, 48 h exposure
Experimental: as §1

T-47D = assay: NCI SRB cytotoxicity, breast T-47D; format: cell-based; settings: Homo sapiens, T47D, 48 h exposure
Experimental: as §1

SF-295 = assay: NCI SRB cytotoxicity, CNS SF-295; format: cell-based; settings: Homo sapiens, 48 h exposure
Experimental: as §1

MCF7 = assay: NCI SRB cytotoxicity, breast MCF7; format: cell-based; settings: Homo sapiens, 48 h exposure
Experimental: as §1

OVCAR-3 = assay: NCI SRB cytotoxicity, ovarian OVCAR-3; format: cell-based; settings: Homo sapiens, 48 h exposure
Experimental: as §1

UACC-62 = assay: NCI SRB cytotoxicity, melanoma UACC-62; format: cell-based; settings: Homo sapiens, 48 h exposure
Experimental: as §1

OVCAR-8 = assay: NCI SRB cytotoxicity, ovarian OVCAR-8; format: cell-based; settings: Homo sapiens, 48 h exposure
Experimental: as §1

BT-549 = assay: NCI SRB cytotoxicity, breast BT-549; format: cell-based; settings: Homo sapiens, 48 h exposure
Experimental: as §1

MALME-3M = assay: NCI SRB cytotoxicity, melanoma MALME-3M; format: cell-based; settings: Homo sapiens, 48 h exposure
Experimental: as §1

SK-MEL-2 = assay: NCI SRB cytotoxicity, melanoma SK-MEL-2; format: cell-based; settings: Homo sapiens, 48 h exposure
Experimental: as §1

PC-3 = assay: NCI SRB cytotoxicity, prostate PC-3; format: cell-based; settings: Homo sapiens, 48 h exposure
Experimental: as §1

HT29 = assay: NCI SRB cytotoxicity, colon HT29; format: cell-based; settings: Homo sapiens, HT-29, 48 h exposure
Experimental: as §1

M14 = assay: NCI SRB cytotoxicity, melanoma M14; format: cell-based; settings: Homo sapiens, 48 h exposure
Experimental: as §1

K-562 = assay: NCI SRB cytotoxicity, leukemia K-562; format: cell-based; settings: Homo sapiens, K562, 48 h exposure
Experimental: as §1

CNS = assay: NCI SRB cytotoxicity, CNS panel average; format: cell-based, human; settings: average of cell lines
Experimental: as §1, §2

Colon = assay: NCI SRB cytotoxicity, colon panel average; format: cell-based, human; settings: average of cell lines
Experimental: as §1, §2

NCI-H226 = assay: NCI SRB cytotoxicity, non-small cell lung NCI-H226; format: cell-based; settings: Homo sapiens, 48 h exposure
Experimental: as §1

HCT-15 = assay: NCI SRB cytotoxicity, colon HCT-15; format: cell-based; settings: Homo sapiens, 48 h exposure
Experimental: as §1

DU-145 = assay: NCI SRB cytotoxicity, prostate DU-145; format: cell-based; settings: Homo sapiens, 48 h exposure
Experimental: as §1

[1] = Homo sapiens, read-out: Log10 LC50 (concentration in mol/L causing 50% cell death) (converted)

COc1ccc(C(=O)/C=C/c2cc(-c3ccc4c(c3)OCO4)n[nH]2)cc1OC [8f, (E)-3-(3-(benzo[d][1,3]dioxol-5-yl)-1H-pyrazol-5-yl)-1-(3,4-dimethoxyphenyl)prop-2-en-1-one]
GI50 (ACHN): 3.49 µM | LC50 (Melanoma; [1]): 0.00105 mol/L | Log10 GI50 (concentration in mol/L causing 50% growth inhibition) (Melanoma): −5.79 mol/L | Log10 TGI (concentration in mol/L causing total growth inhibition) (Melanoma): −4.80 mol/L | GI50 (HCC-2998): 4.99 µM | GI50 (U251): 1.58 µM | GI50 (SNB-19): 3.2 µM | GI50 (SR): 1.27 µM | GI50 (SK-OV-3): 3.97 µM | GI50 (HOP92): 2.16 µM | GI50 (HL-60(TB)): 2.82 µM | CC50 (Renal; [1]): 32.4 µM | Log10 GI50 (concentration in mol/L causing 50% growth inhibition) (Renal): −5.46 mol/L | Log10 TGI (concentration in mol/L causing total growth inhibition (0% growth)) (Renal): −5.01 mol/L | GI50 (MDA-MB-231/ATCC): 2.4 µM | GI50 (SF-539): 1.91 µM | GI50 (COLO-205): 3.84 µM | GI50 (MOLT-4): 3 µM | GI50 (SN12C): 3.25 µM | GI50 (T-47D): 3.2 µM | GI50 (SF-295): 2.51 µM | GI50 (MCF7): 3.2 µM | GI50 (OVCAR-3): 2.02 µM | GI50 (UACC-62): 4.1 µM | GI50 (OVCAR-8): 2.15 µM | GI50 (BT-549): 1.9 µM | GI50 (MALME-3M): 7.32 µM | GI50 (SK-MEL-2): 6.93 µM | GI50 (PC-3): 2.5 µM | GI50 (HT29): 2.98 µM | GI50 (M14): 6.36 µM | GI50 (K-562): 2.47 µM | LC50 (CNS; [1]): 0.000155 mol/L | Log10 GI50 (concentration in mol/L causing 50% growth inhibition) (CNS): −5.65 mol/L | Log10 TGI (concentration in mol/L causing total growth inhibition (0% growth)) (CNS): −5.14 mol/L | LC50 (Colon; [1]): 0.000676 mol/L | Log10 GI50 (concentration in mol/L causing 50% growth inhibition) (Colon): −5.52 mol/L | Log10 TGI (concentration in mol/L causing total growth inhibition) (Colon): −4.85 mol/L | GI50 (NCI-H226): 3.4 µM | GI50 (HCT-15): 2.81 µM | GI50 (DU-145): 1.8 µM
